Experimental findings from paper PMC6152192, “Novel Methylselenoesters as Antiproliferative Agents” (Molecules : A Journal of Synthetic Chemistry and Natural …, 2017) are described below.

Usually GI50 stands for the concentration at which growth is held to half of that of the control. What is called TGI is the concentration at which net growth stops. Read a high TGI as less potent growth arrest.

The test system of series [1] is PC-3 (prostate adenocarcinoma). Nature of the series: MTT viability assay, PC-3. It is filed as cell-based. The note with it: PC-3, 72 h, MTT; for CC50: read-out: LC50 (the source's name). The method, then: (§1) The novel compounds were tested against a panel of different cancer lines: PC-3 (prostate adenocarcinoma), MCF7 (mammary adenocarcinoma), HTB-54 (lung carcinoma), K-562 (chronic myelogenous leukemia) and HT-29 (colorectal adenocarcinoma). Two non-malignant cell lines, BEAS-2B (bronchial epithelial) and 184B5 (mammary epithelial) were also included to evaluate the toxicity of the novel synthesized compounds. The antiproliferative activity was measured with the [3-(4,5-dimethylthiazol-2-yl)-2,5-diphenyltetrazolium bromide] (MTT) assay after 72 h treatment. Six concentrations ranging from 0.1 to 100 μM were tested. MSA is largely known as the main CH3SeH putative precursor and was therefore included as positive control. The following parameters were calculated: GI50 (concentration which reduces the growth by 50%), TGI (concentration completely inhibiting growth) and LC50 (concentration that kills 50% of the cells).
(§2) All cells were purchased from the American Type Culture Collection (ATCC, Barcelona, Spain). HT-29 (colorectal adenocarcinoma), HTB-54 (grade III lung carcinoma), MCF7 (mammary adenocarcinoma), PC-3 (grade IV prostate adenocarcinoma) and K-562 (chronic myelogenous leukemia) were cultured in RPMI (Gibco, Madrid, Spain), 10% FBS (Gibco), 100 units/mL penicillin and 100 μg/mL streptomycin (Gibco). BEAS-2B cell line (normal epithelial lung) was cultured in DMEM (Gibco), 10% FBS, 100 units/mL penicillin and 100 μg/mL streptomycin. 184B5 (normal mammary gland) cell line was cultured in DMEM:F12 supplemented with 5% FBS, 1 × ITS (Lonza, Barcelona, Spain), 100 nM hydrocortisone (Sigma-Aldrich), 2 mM sodium pyruvate (Lonza), 20 ng/mL EGF (Sigma-Aldrich), 0.3 nM trans-retinoic acid (Sigma-Aldrich), 100 units/mL penicillin and 100 µg/mL streptomycin. Cells were cultured at 37 °C under 5% CO2.
(§3) Cell viability after treatment was assessed by the well-known 3-(4,5-dimethyl-thiazol-2-yl)-2,5-diphenyltetrazolium bromide (MTT, Sigma-Aldrich) assay. Briefly, 10,000 cells were seeded in 96-well plates, treated and incubated for 72 h. Dilutions of the compounds in cell medium were freshly prepared from a 0.01 M stock in DMSO. After treatment, 50 μL of MTT solution in PBS (2 mg/mL) were added and cells were incubated for 4 h. Medium was removed and 150 μL of DMSO was added to dissolve the formed formazan crystals. Absorbance was read at 550 nm in a microplate absorbance reader (Sunrise, Tecan, Männedorf, Switzerland).
In general terms: Tetrazolium assays rely on reduction of a dye to a coloured formazan, in cell work by metabolically active cells.

Series [2] relates to K-562 (chronic myelogenous leukemia). The series is described as follows: MTT viability assay, K-562. The note with it: K-562, 72 h, MTT; for CC50: read-out: LC50 (the source's name). Type of series: cell-based. The method, then: as §1, §2, §3
A short description of series [3]: Methylselenol (CH3SeH) release by hydrolysis, quantified with DTNB (Ellman's reagent). The following applies: 100 μM compound, 100 μM DTNB, 100 mM phosphate buffer, 1 mM EDTA, pH 8, followed over 72 h. It is filed as physicochemical. The text has this:
The new compounds were designed as CH3SeH precursors. The chemical features of the selenoester functional group facilitate a nucleophilic attack (i.e., with water) which would deliver the CH3SeH residue. In order to verify if CH3SeH could be released from the molecules by hydrolysis and if the rate differed among the compounds, the reaction of CH3SeH with 5,5′-dithiobis(2-nitrobenzoic acid) (DTNB or Ellman’s reagent) in aqueous environment was monitored. Briefly, when the disulfide bridge of DTNB reacts with thiols or selenols, 2-nitro-5-thiobenzoate (TNB^2−) is released and the mixed disulfide or selenylsulfide is formed. Each released CH3SeH produces one yellow TNB^2− species, whose absorbance can be quantified at 412 nm (Figure 2A).
A stock solution of the compounds was prepared in anhydrous DMSO (10 mM). The compounds were placed in a 96-well plate in a final concentration of 100 μM. Reaction started after adding 200 μL of an aqueous 100 mM Na2HPO4 buffer (1 mM EDTA, pH = 8), containing 100 μM of DTNB from a freshly prepared 10 mM ethanolic stock, which were added just before starting the reaction. The DTNB concentration was quantified with a cysteine standard curve ([…]). Blanks for the compounds in the absence of DTNB were also included as well as a blank to measure the slow but spontaneous hydrolysis of DTNB, which was further subtracted from all the values. Absorbance was read at 412 nm in a FLUOstar Omega microplate reader (BMG LabTech, Ortenberg, Germany). Results represent means of triplicate values ± SD.
Figure 2 CH3SeH release rates are dependent on the chemical features of the molecule. Released CH3SeH was quantified through reaction with Ellman’s reagent (DTNB). (A) Proposed reaction between CH3SeH and DTNB; (B) Quantification of TNB^2− at different times. The compounds were tested at 100 μM in 200 μL of 100 mM phosphate buffer (1 mM EDTA, pH = 8). DTNB concentration was also 100 μM. Absorbance was followed at 412 nm over 72 h. A cysteine standard curve (7.5–150 μM) was used to calculate the concentration of TNB^2− over time. Compounds showing less than 15% hydrolysis at 72 h are not included, except for compound 5 as example. Error bars indicate SD of triplicates.

In series [4] the test system is MCF7 (mammary adenocarcinoma). The series is described as follows: MTT viability assay, MCF7. Type of series: cell-based. The note with it: MCF7, 72 h, MTT; for CC50: read-out: LC50 (the source's name). Here is the method:
as §1, §2, §3

Series [5] has as its system BEAS-2B (non-malignant bronchial epithelial). Nature of the series: MTT viability assay, BEAS-2B. It is filed as cell-based. The following applies: BEAS-2B non-malignant, 72 h, MTT; for CC50: read-out: LC50 (the source's name). The method, then: as §1, §2, §3
For series [6], the system named is HT-29 (colorectal adenocarcinoma). The series is described as follows: MTT viability assay, HT-29. It is filed as cell-based. The following applies: HT-29, 72 h, MTT; for CC50: read-out: LC50 (the source's name). Here is the method: as §1, §2, §3
Series [7] relates to 184B5 (non-malignant mammary epithelium). Nature of the series: MTT viability assay, 184B5. Type of series: cell-based. The following applies: 184B5 non-malignant, 72 h, MTT; for CC50: read-out: LC50 (the source's name). The method, then: as §1, §2, §3
For the next series, the system named is HTB-54 (lung carcinoma). The series is described as follows: MTT viability assay, HTB-54. It is filed as cell-based. The note with it: HTB-54, 72 h, MTT; for CC50: read-out: LC50 (the source's name). The method, then:
as §1, §2, §3

“Methyl 3-quinolinecarboselenoate [Compound 9]”: the GI50 in series [1] was 5.9 ± 0.5 µM; in series [2] it was 39.5 ± 3.1 µM; in series [4], 4.4 ± 0.8 µM; in series [5], 4.1 ± 1 µM; in series [6] it was 3.4 ± 0.2 µM; in series [7], 3.7 ± 0.5 µM. Also, halving of growth in the series on HTB-54 (lung carcinoma) (GI50) required 7.8 ± 1.2 µM. The TGI turned out to be 10.0 ± 1.9 µM in series [1]; 72.6 ± 4.1 µM in series [2]; 8.1 ± 1.2 µM in series [4]; 7.1 ± 4.5 µM in series [5]; 7.0 ± 0.2 µM in series [6]; 6.2 ± 0.4 µM in series [7]. In the series on HTB-54 (lung carcinoma), this substance displayed a TGI of 33.0 ± 4.5 µM. The CC50 in series [1] is 84.1 ± 8.9 µM; in series [2], above 100 µM; in series [4] it was 48 ± 7.5 µM; in series [5], 15.3 ± 9.1 µM; in series [6], 37.2 ± 5 µM; in series [7], 8.6 ± 0.4 µM. Further, in the series with HTB-54 (lung carcinoma), the CC50 was determined as 69.2 ± 2.7 µM. Further, in series [3], the “CH3SeH release / hydrolysis rate” value is reported as “more sustained release”.

Turning to “Methyl 4-nitrobenzoselenoate [Compound 1]”, the GI50 in series [1] was determined as 5.8 ± 0.7 µM; in series [2], 50.1 ± 2.3 µM; in series [4], 4.1 ± 0.5 µM; in series [5], 3.8 ± 0.3 µM; in series [6], 5 ± 0.7 µM; in series [7], 3.4 ± 0.4 µM. For the same substance, the TGI in series [1] worked out at 10.4 ± 2.3 µM; in series [2], 85.3 ± 4.9 µM; in series [4], 7.9 ± 0.9 µM; in series [5], 6.4 ± 0.4 µM; in series [6], 9.3 ± 1.4 µM; in series [7] it was 6.4 ± 1.1 µM. This substance also gave a TGI in the series on HTB-54 (lung carcinoma) of 50.5 ± 5.1 µM. The CC50 is 75.7 ± 3.3 µM in series [1]; above 100 µM in series [2]; 45 ± 4.6 µM in series [4]; 9 ± 0.7 µM in series [5]; 87.2 ± 5 µM in series [6]; 9.3 ± 0.6 µM in series [7]. Moreover, the CC50 in the series on HTB-54 (lung carcinoma) was 78.6 ± 2.9 µM. Also, the “CH3SeH release / hydrolysis rate” value in series [3] is on record as “more sustained release”.

Take “Methyl 5-isoxazolecarboselenoate [Compound 6]”: the GI50 turned out to be 4.5 ± 1.3 µM in series [1]; 18.5 ± 7.1 µM in series [2]; 3.5 ± 1 µM in series [4]; 3 ± 0.9 µM in series [5]; 5 ± 0.8 µM in series [6]; 2.7 ± 0.2 µM in series [7]. This substance also registered a concentration for 50% growth inhibition (GI50) in the series with HTB-54 (lung carcinoma) of 9 ± 2.8 µM. Besides, the CC50 stood at 61.5 ± 14 µM in series [1]; 98.1 ± 0.7 µM in series [2]; 71.9 ± 3.2 µM in series [4]; 8.2 ± 0.5 µM in series [5]; 90.8 ± 15 µM in series [6]; 9.3 ± 2 µM in series [7]. Further, the CC50 in the series on HTB-54 (lung carcinoma) came to 82 ± 1.3 µM. Besides, the TGI stood at 58.3 ± 3.5 µM in series [2]; 8.8 ± 0.7 µM in series [4]; 5.6 ± 0.7 µM in series [5]; 15.1 ± 6.7 µM in series [6]; 6.0 ± 0.4 µM in series [7]; 43.9 ± 3.9 µM with HTB-54 (lung carcinoma). Also, in series [3], the “CH3SeH release / hydrolysis rate” value is on record as “completely hydrolyzed within the first two hours of incubation”.

For “Methyl 6-bromochromone-2-carboselenoate [Compound 11]”, the GI50 in series [1] stood at 5.3 ± 1.1 µM; in series [2], 81.9 ± 4 µM; in series [4] it was 4.2 ± 0.7 µM; in series [5] it was 2.4 ± 0.9 µM; in series [6], 4.9 ± 0.7 µM; in series [7], 3.3 ± 0.1 µM. In the series with HTB-54 (lung carcinoma), this substance showed a GI50 of 9.4 ± 3.5 µM. Also, the TGI in series [1] is 17.1 ± 5.0 µM; in series [2], above 100 µM; in series [4] it was 8.2 ± 1.1 µM; in series [5] it was 5.0 ± 0.8 µM; in series [6], 9.6 ± 3 µM; in series [7] it was 6.7 ± 0.9 µM. Further, the TGI in the series with HTB-54 (lung carcinoma) amounted to 52.3 ± 2.9 µM. Besides, the CC50 is 66.2 ± 2.4 µM in series [1]; above 100 µM in series [2]; above 100 µM in series [4]; 7.6 ± 0.7 µM in series [5]; 74.4 ± 4.2 µM in series [6]; 14.5 ± 4.5 µM in series [7]. The CC50 in the series on HTB-54 (lung carcinoma) was above 100 µM. For the same substance, the “CH3SeH release / hydrolysis rate” value in series [3] is recorded as “completely hydrolyzed within the first two hours of incubation”.
